Patent US20130281449A1, “Oxazine Derivatives and their Use in the Treatment of Neurological Disorders” (NOVARTIS AG, priority 2011, published 2013)
Where a name gives a salt, the structure may show the parent alone.

What was measured:
Human BACE-1 = Human BACE-1 (Homo sapiens, UniProt P56817); experiment: Test 1: Inhibition of Human BACE-1; type: biochemical; details: mean IC50 values in Test 1; recombinant BACE-1, pH 4.5
Protocol: Test 1: Inhibition of Human BACE-1
IC50 values are calculated from percentage of inhibition of BACE-1 activity as a function of the test compound concentration.

[1] = test system: Cellular Release of Amyloid Peptide 1-40; experiment: Test 4: Inhibition of Cellular Release of Amyloid Peptide 1-40; type: cell-based, Chinese hamster; details: Cricetulus griseus, 24 h; read-out: Amyloid-β1-40 release IC50
Protocol: Chinese hamster ovary cells are transfected with the human gene for amyloid precursor protein. The cells are plated at a density of 8000 cells/well into 96-well microtiter plates and cultivated for 24 hours in DMEM cell culture medium containing 10% FCS. The test compound is added to the cells at various concentrations, and the cells are cultivated for 24 hours in the presence of the test compound. […] The potency of the compound is calculated from the percentage of inhibition of amyloid peptide release as a function of the test compound concentration.

Sequence of Human BACE-1 (P56817 46-457 limits assumed): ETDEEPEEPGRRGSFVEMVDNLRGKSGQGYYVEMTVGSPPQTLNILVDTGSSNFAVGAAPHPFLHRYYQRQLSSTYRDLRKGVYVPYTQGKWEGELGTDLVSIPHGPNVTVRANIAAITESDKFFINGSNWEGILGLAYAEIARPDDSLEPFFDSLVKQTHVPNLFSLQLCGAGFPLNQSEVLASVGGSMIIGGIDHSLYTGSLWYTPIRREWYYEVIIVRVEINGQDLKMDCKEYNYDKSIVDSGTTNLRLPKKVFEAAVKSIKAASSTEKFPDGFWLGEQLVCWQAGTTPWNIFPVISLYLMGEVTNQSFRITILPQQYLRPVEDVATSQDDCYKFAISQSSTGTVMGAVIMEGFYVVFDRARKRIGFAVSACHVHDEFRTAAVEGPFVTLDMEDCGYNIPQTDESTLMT

| Compound | IC50 (Human BACE-1) | IC50 [1] |
| --- | --- | --- |
| [2H]c1nc(C(=O)Nc2cc(F)c(F)c([C@]3(C(F)F)COCC(N)=N3)c2)c(C([2H])([2H])[2H])c([2H])c1Cl [Example 16, 4,6-Dideutero-5-chloro-3-trideuteromethyl-pyridine-2-carboxylic acid [3-((R)-5-amino-3-difluoromethyl-3,6-dihydro-2H-[1,4]oxazin-3-yl)-4,5-difluoro-phenyl]-amide] | 14 nM | 14 nM |
| NC1=N[C@@](c2cc(NC(=O)c3ncc(C(F)F)nc3N)ccc2F)(C(F)F)COC1 [Example 6, 3-Amino-5-difluoromethyl-pyrazine-2-carboxylic acid [3-((R)-5-amino-3-difluoromethyl-3,6-dihydro-2H-[1,4]oxazin-3-yl)-4-fluoro-phenyl]-amide] | 25 nM | 8 nM |
| Cc1cc(C(F)F)cnc1C(=O)Nc1ccc(F)c([C@]2(C(F)F)COCC(N)=N2)c1 [Example 8, 5-Difluoromethyl-3-methyl-pyridine-2-carboxylic acid [3-((R)-5-amino-3-difluoromethyl-3,6-dihydro-2H-[1,4]oxazin-3-yl)-4-fluoro-phenyl]-amide hydrochloride] | 54 nM | 8 nM |
| C#CCOc1cnc(C(=O)Nc2ccc(F)c([C@]3(C(F)F)COCC(N)=N3)c2)c(N)n1 [Example 4, 3-Amino-5-prop-2-ynyloxy-pyrazine-2-carboxylic acid [3-((R)-5-amino-3-difluoromethyl-3,6-dihydro-2H-[1,4]oxazin-3-yl)-4-fluoro-phenyl]-amide] | 2 nM | 1 nM |
| [2H]C([2H])([2H])OCc1cc(OC([2H])([2H])[2H])cnc1C(=O)Nc1ccc(F)c([C@]2(C(F)F)COCC(N)=N2)c1 [Example 10, 5-Trideuteromethoxy-3-trideuteromethoxymethyl-pyridine-2-carboxylic acid [3-((R)-5-amino-3-difluoromethyl-3,6-dihydro-2H-[1,4]oxazin-3-yl)-4-fluoro-phenyl]-amide] | 190 nM | 32 nM |
| Cc1cc(C#N)cnc1C(=O)Nc1cc(F)c(F)c([C@]2(C(F)F)COCC(N)=N2)c1 [Example 14, 5-Cyano-3-methyl-pyridine-2-carboxylic acid [3-((R)-5-amino-3-difluoromethyl-3,6-dihydro-2H-[1,4]oxazin-3-yl)-4,5-difluoro-phenyl]-amide] | 20 nM | 9 nM |
| NC1=N[C@@](c2cc(NC(=O)c3ccc4c(Cl)c[nH]c4n3)ccc2F)(C(F)F)COC1 [Example 5, 3-Chloro-1H-pyrrolo[2,3-b]pyridine-6-carboxylic acid [3-((R)-5-amino-3-difIuoromethyl-3,6-dihydro-2H-[1,4]oxazin-3-yl)-4-fluoro-phenyl]-amide] | 12 nM | 14 nM |
| [2H]C([2H])([2H])OCc1cc(F)cnc1C(=O)Nc1ccc(F)c([C@]2(C(F)F)COCC(N)=N2)c1 [Example 9, 5-Fluoro-3-trideuteromethoxymethyl-pyridine-2-carboxylic acid [3-((R)-5-amino-3-difluoromethyl-3,6-dihydro-2H-[1,4]oxazin-3-yl)-4-fluoro-phenyl]-amide] | 110 nM | 36 nM |
| COc1cnc(C(=O)Nc2ccc(F)c([C@]3(C)CO[C@@](C)(C(F)(F)F)C(N)=N3)c2)c(Cl)c1 [Example 18, 3-Chloro-5-methoxy-pyridine-2-carboxylic acid [3-((3R,6R)-5-amino-3,6-dimethyl-6-trifluoromethyl-3,6-dihydro-2H-[1,4]oxazin-3-yl)-4-fluoro-phenyl]-amide hydrochloride] | 20 nM | 9 nM |

The next lines start with the values.

| IC50 (Human BACE-1) | IC50 [1] | Compound |
| --- | --- | --- |
| 29 nM | 4 nM | Cc1cc(OC(F)F)cnc1C(=O)Nc1ccc(F)c([C@]2(C)COC(CF)(CF)C(N)=N2)c1 [Example 40, 5-Difluoromethoxy-3-methyl-pyridine-2-carboxylic acid [3-((R)-5-amino-6,6-bis-fluoromethyl-3-methyl-3,6-dihydro-2H-[1,4]oxazin-3-yl)-4-fluoro-phenyl]-amide] |
| 14 nM | 10 nM | C[C@@]1(c2cc(NC(=O)c3ncc(C(F)F)cc3N)ccc2F)CO[C@@](C)(C(F)(F)F)C(N)=N1 [Example 29, 3-Amino-5-difluoromethyl-pyridine-2-carboxylic acid [3-((3R,6R)-5-amino-3,6-dimethyl-6-trifluoromethyl-3,6-dihydro-2H-[1,4]oxazin-3-yl)-4-fluoro-phenyl]-amide] |
| 5 nM | 26 nM | Cc1cc(Cl)cnc1C(=O)Nc1ccc(F)c([C@]2(C)CO[C@@](C)(C(F)(F)F)C(N)=N2)c1 [Example 20, 5-Chloro-3-methyl-pyridine-2-carboxylic acid [3-((3R,6R)-5-amino-3,6-dimethyl-6-trifluoromethyl-3,6-dihydro-2H-[1,4]oxazin-3-yl)-4-fluoro-phenyl]-amide hydrochloride] |
| 20 nM | 7 nM | Cl.[2H]C([2H])([2H])Oc1cnc(C(=O)Nc2ccc(F)c([C@]3(C)CO[C@@](C)(C(F)(F)F)C(N)=N3)c2)c(Cl)c1 [Example 22, 3-Chloro-5-trideutero-methoxy-pyridine-2-carboxylic acid [3-((3R,6R)-5-amino-3,6-dimethyl-6-trifluoromethyl-3,6-dihydro-2H-[1,4]oxazin-3-yl)-4-fluoro-phenyl]-amide hydrochloride] |
| 13 nM | 41 nM | [2H]C([2H])([2H])OC([2H])([2H])c1cc2c(Cl)c[nH]c2nc1C(=O)Nc1ccc(F)c([C@]2(C)CO[C@@](C)(C(F)(F)F)C(N)=N2)c1 [Example 33, 3-Chloro-5-trideuteromethoxy-dideuteromethyl-1H-pyrrolo[2,3-b]pyridine-6-carboxylic acid [3-((3R,6R)-5-amino-3,6-dimethyl-6-trifluoromethyl-3,6-dihydro-2H-[1,4]oxazin-3-yl)-4-fluoro-phenyl]-amide] |
| 300 nM | 22 nM | Cc1cc(OC(F)F)cnc1C(=O)Nc1ccc(F)c(C2(C)COC(CF)(CF)C(N)=N2)c1 (centres unmarked) [Example 39, 5-Difluoromethoxy-3-methyl-pyridine-2-carboxylic acid [3-(5-amino-6,6-bis-fluoromethyl-3-methyl-3,6-dihydro-2H-[1,4]oxazin-3-yl)-4-fluoro-phenyl]-amide] |
| 24 nM | 22 nM | N#Cc1cnc(C(=O)Nc2ccc(F)c([C@]3(CF)COC(CF)(CF)C(N)=N3)c2)c(Cl)c1 [Example 43, 3-Chloro-5-cyano-pyridine-2-carboxylic acid [3-((R)-5-amino-3,6,6-tris-fluoromethyl-3,6-dihydro-2H-[1,4]oxazin-3-yl)-4-fluoro-phenyl]-amide] |
| 12 nM | 13 nM | Cc1cc(C#N)cnc1C(=O)Nc1ccc(F)c([C@]2(CF)COC(CF)(CF)C(N)=N2)c1 [Example 42, 5-Cyano-3-methyl-pyridine-2-carboxylic acid [3-((R)-5-amino-3,6,6-tris-fluoromethyl-3,6-dihydro-2H-[1,4]oxazin-3-yl)-4-fluoro-phenyl]-amide] |
| 10 nM | 8 nM | C[C@@]1(c2cc(NC(=O)c3ncc(C(F)F)nc3N)ccc2F)CO[C@@](C)(C(F)(F)F)C(N)=N1 [Example 28, 3-Amino-5-difLuoromethyl-pyrazine-2-carboxylic acid [3-((3R,6R)-5-amino-3,6-dimethyl-6-trifluoromethyl-3,6-dihydro-2H-[1,4]oxazin-3-yl)-4-fluoro-phenyl]-amide] |
| 20 nM | 11 nM | C[C@@]1(c2cc(NC(=O)c3ncc(C(F)F)cc3Cl)ccc2F)CO[C@@](C)(C(F)(F)F)C(N)=N1 [Example 32, 3-Chloro-5-difluormethyl-pyridine-2-carboxylic acid [3-((3R,6R)-5-amino-3,6-dimethyl-6-trifluoromethyl-3,6-dihydro-2H-[1,4]oxazin-3-yl)-4-fluoro-phenyl]-amide] |
| 12 nM | 9 nM | C[C@@]1(c2cc(NC(=O)c3ncc(Cl)cc3F)ccc2F)CO[C@@](C)(C(F)(F)F)C(N)=N1 [Example 21, 5-Chloro-3-fluoro-pyridine-2-carboxylic acid [3-((3R,6R)-5-amino-3,6-dimethyl-6-trifluoromethyl-3,6-dihydro2H-[1,4]oxazin-3-yl)-4-fluoro-phenyl]-amide hydrochloride] |
| 16 nM | 10 nM | Cc1cc(C(F)F)cnc1C(=O)Nc1ccc(F)c([C@]2(C)CO[C@@](C)(C(F)(F)F)C(N)=N2)c1 [Example 27, 5-Difluoromethyl-3-methyl-pyridine-2-carboxylic acid [3-((3R,6R)-5-amino-3,6-dimethyl-6-trifluoromethyl-3,6-dihydro-2H-[1,4]oxazin-3-yl)-4-fluoro-phenyl]-amide hydrochloride] |
|  | 88 nM | Cc1cc(F)cnc1C(=O)Nc1ccc(F)c([C@]2(C)CO[C@@](C)(C(F)(F)F)C(N)=N2)c1 [Example 35, 5-Fluoro-3-methyl-pyridine-2-carboxylic acid [3-((3R,6R)-5-amino-3,6-dimethyl-6-trifluoro-methyl-3,6-dihydro-2H-[1,4]oxazin-3-yl)-4-fluoro-phenyl]-amide] |
|  | 4 nM | Cc1cc(C#N)cnc1C(=O)Nc1ccc(F)c(C2(C)COC(CF)(CF)C(N)=N2)c1 (racemic) [Example 37, 5-Cyano-3-methyl-pyridine-2-carboxylic acid [3-(5-amino-6,6-bis-fluoromethyl-3-methyl-3,6-dihydro-2H-[1,4]oxazin-3-yl)-4-fluoro-phenyl]-amide] |
